What was measured:
GCLC = biological target: T1, GCLC (Homo sapiens, UniProt P48506); assay: BLI binding assay, GCLC
T1 construct: purchased Abcam
T1 sequence (P48506 1-637): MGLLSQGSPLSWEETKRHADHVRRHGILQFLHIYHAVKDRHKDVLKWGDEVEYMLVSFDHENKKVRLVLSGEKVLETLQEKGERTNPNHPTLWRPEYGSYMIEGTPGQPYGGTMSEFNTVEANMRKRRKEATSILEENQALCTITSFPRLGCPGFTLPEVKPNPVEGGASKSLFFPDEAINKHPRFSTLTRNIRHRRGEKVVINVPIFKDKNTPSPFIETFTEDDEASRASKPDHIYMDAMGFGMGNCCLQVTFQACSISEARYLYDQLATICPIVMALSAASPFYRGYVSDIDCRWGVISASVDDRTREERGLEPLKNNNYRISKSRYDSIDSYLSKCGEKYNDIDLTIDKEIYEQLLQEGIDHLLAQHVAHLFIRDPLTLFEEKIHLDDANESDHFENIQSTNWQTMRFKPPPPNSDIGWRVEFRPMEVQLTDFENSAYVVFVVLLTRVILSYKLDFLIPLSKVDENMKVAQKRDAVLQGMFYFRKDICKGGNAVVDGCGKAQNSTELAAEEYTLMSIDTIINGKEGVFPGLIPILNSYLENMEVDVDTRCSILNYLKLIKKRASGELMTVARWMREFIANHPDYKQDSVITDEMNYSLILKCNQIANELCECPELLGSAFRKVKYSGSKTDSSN
Description: The binding kinetics of PepE or PepA to purified recombinant proteins were determined using BLI on an Octet RED 96 system (ForteBio, Shanghai, China) following the manufacturer's protocol. All interaction analyses were performed at 25 °C in PBS with 0.2% DMSO. Purified recombinant proteins (0.9 μM, the TrxR1 full length and TrxR1 protein fragment were pre-reduced by 400 μM of NADPH before test) were pre-labeled with biotin using […] (Abcam) following the manufacturer's instruction. Loading of the Dip and Read Super Streptavidin (SSA) Biosensors (ForteBio) were conducted by exposing biotinylated proteins to biosensor tips for 2 h. The 96-well microplates used in the Octet were filled with 200 μL sample or buffer per well and agitated at 1000 rpm. The loaded biosensors were washed in buffer for 600 s and transferred to wells containing PepE at concentrations of 0.625, 1.25, 2.5, 5, and 10 μM or PepA at concentrations of 1.25, 2.5, 5, 10 and 20 μM, respectively, in the buffer. […] Reference measurements were conducted using the buffer instead of PepE (or PepA). A parallel set of SA unloaded biosensors was prepared to act as a control. The sample-sensorgrams were corrected by subtracting the double reference curve. Kinetic parameters (Kon and Kdis) and affinity (KD) were determined from a global fit to a 1:1 binding model of the data between proteins and PepE using Octet software (ForteBio).

KG-1a CD34+ cells = assay: KG-1a-Luc CD34+ xenograft in NOD/SCID mice, bioluminescence; format: in vivo
Description: Six-week-old female NOD-SCID mice (obtained from the model animal research center of Nanjing University, Nanjing, China) were acclimated for 1 week and housed in groups of five. All animal studies were conducted under the guidelines approved by the Animal Care and Use Committee of the Nanjing University of Chinese Medicine (Nanjing, China). The mice were sublethally irradiated with 2.7 Gy before transplantation.
KG-1a cells tagged with a luciferase reporter gene (KG-1a-Luc) were obtained from Cobioer biotechnology Inc. (Nanjing, Jiangsu, China) and cultured in 90% IMDM supplemented with 10% FBS, 0.05 mM 2-Mercaptoethanol, and 1 μg/mL Puromycin, and grown at 37 °C in a 5% CO2 humidified incubator. CD34 positive cells were enriched (following the 2.3 method) and injected via the tail vein in a final volume of 0.2 mL PBS with 0.5% FBS. For analyzing the luciferase signal, 5 × 10^6 cells KG-1a-Luc cells were used for each recipient animal. Seven days after transplantation, mice with KG-1a-Luc implants were subjected to bioluminescent analysis based on the luciferase signal. Briefly, mice received D-luciferin phosphate solution (100 mg/kg) intravenously 10 min prior to imaging. They were then anesthetized with isoflurane inhalation and imaged using a Xenogen IVIS scanner (PerkinElmer, Waltham, MA, USA). The next day, mice showing successful implantations were randomly divided into the control, DMAPE low dose, DMAPE high dose, and Ara-C treatment groups (n = 5 in each group), which received daily i. g. saline buffer, DMAPE phosphate salt 25 mg/kg, DMAPE phosphate salt 50 mg/kg and Ara-C (50 mg/kg), respectively. The growth of KG-1a-Luc cells was monitored every week by their luciferase signal. Five weeks after the implantation, all mice were sacrificed and their livers, kidneys, and bone marrow were excised for ex vivo bioluminescent imaging. The bioluminescent signal intensity was all quantified using the Living Image software (version 4.2, Carliper Life Science, Inc., Hopkinton, MA, USA) and is presented as photons/second/cm^2/sr (sr denotes steradian).

| Kd (GCLC) [µM] | kon (GCLC) [M⁻¹ s⁻¹] | koff (GCLC; read-out: Kdis) [s⁻¹] | Structure (SMILES) | growth and metastasis of AML CD34+ cells in NOD/SCID mice (KG-1a CD34+ cells; 25 mg/kg/d) | luciferase signal in the bone marrow (KG-1a CD34+ cells; 50 mg/kg i.g. daily, week 5, ex vivo imaging) | overall luciferase signal in the liver and kidney, saline vs treated (KG-1a CD34+ cells; 50 mg/kg i.g. daily, week 5, P < 0.001 kidneys, P < 0.01 livers) | luciferase signal intensities compared to the saline-treated mice (KG-1a CD34+ cells; 25 and 50 mg/kg i.g. daily, P < 0.05 at three weeks, P < 0.01 at five weeks) |
| --- | --- | --- | --- | --- | --- | --- | --- |
| 1340 | 465 | 0.625 | C=C1C(=O)OC[C@H]1C(c1cc(OC)c2c(c1)OCO2)c1cc(OC)c2c(c1)OCO2 [PepE, Peperomin E] | – | – | – | – |
| – | – | – | COc1cc(C(c2cc(OC)c3c(c2)OCO3)[C@@H]2COC(=O)[C@H]2CN(C)CCO)cc2c1OCO2 [DMAPE, (2S,3S)-6-Methyl (hydroxyethyl) amino-2,6-dihydropeperomin E] | significantly suppressed | almost no luciferase signal was detected | significantly stronger in the saline-treated group | significantly weaker |

— article PMC6434189, “Peperomin E and its orally bioavailable analog induce oxidative stress-mediated apoptosis of acute myeloid leukemia progenitor cells by targeting thioredoxin reductase” (Redox Biology, 2019)
